From patent publication US20250295608A1, “PHARMACEUTICAL COMPOSITIONS AND METHODS FOR TREATING OSTEOARTHRITIS” (INSIGNIA PHARMACEUTICALS, LLC, priority 2024, published 2025)
“Also recorded” adds a separate entry of the source.

Legend:
[1] = system: IL-1β-induced PGE2 release; assay: IL-1β-induced PGE2 release from normal human chondrocytes (competitive EIA); assay type: cell-based
Aggrecan (ACAN) = assay: ACAN relative expression in osteoarthritic chondrocytes (qRT-PCR); assay type: cell-based; conditions: passage 5 human osteoarthritic chondrocytes, 27 days
Text: Delta-delta relative gene expression was employed to determine ACAN regulation in the 27-day samples referenced in Examples 15 and 16.

RUNX2 = RUNX2 relative expression in osteoarthritic chondrocytes (qRT-PCR)
Protocol: Examples of the present disclosure were conducted to evaluate the expression of key chondrocyte markers in the presence of test compounds. High passage and low passage chondrocytes were prepared where in both cases, primary human chondrocytes were cultured as confluent monolayers on tissue culture plates. For the high passage chondrocytes, fibroblast-like human osteoarthritic chondrocytes were used. The cells were cultured for an extended period before investigation (passage 13).
When indicated, the cells were also cultured with TGF-β3 at a final concentration of 10 ng/ml.
The data is presented as GAPDH normalized relative expression of key markers versus unstimulated controls.
The culture mediums were replenished weekly by withdrawing about half of the volume and replacing them with warmed mediums supplemented as needed. After 27 days, total RNA was extracted and qRT-PCR was carried out with primer sets for SOX9, RUNX2, and GAPDH.

Elastin (ELN) = assay: ELN mRNA in normal human dermal fibroblasts (NHDF), qRT-PCR; assay type: cell-based; conditions: IL-1β 0.1 ng/ml, 24 hours; 100 mM Lac, 0.1 mM Dxp; n=3
Protocol: (§1) After 24 hours, total mRNA was isolated and delta-delta Cp relative expression was calculated versus untreated medium controls, normalized to the housekeeping gene, GAPDH. Statistical analysis was then conducted via t-test.

[2] = system: matrix metalloproteinase 12 (MMP12); assay: MMP12 mRNA in NHDF, qRT-PCR; assay type: cell-based, human; conditions: IL-1β 0.1 ng/ml, 24 hours; 100 mM Lac, 0.1 mM Dxp
Protocol: as §1

type I collagen (Col1a1) = assay: Col1a1 relative expression in osteoarthritic chondrocytes (qRT-PCR); assay type: cell-based; conditions: passage 5 human osteoarthritic chondrocytes, 27 days
Protocol: To evaluate the biological ramifications of the SOX9 to RUNX2 regulation mentioned above, delta-delta relative gene expression was assessed against medium controls, with normalization to GAPDH for both Col2a1 and Col1a1 in the samples tested with reference to Example 15. […] Moreover, treatment with 100 mM Lac increased collagen expression (49.88+4.31 and 1.63+0.20 for Col2a1 and Col1a1, respectively; FIGS. 51 and 52).

[3] = system: matrix metalloproteinase 3 (MMP3); assay: MMP3 mRNA in NHDF, qRT-PCR; assay type: cell-based, human; conditions: IL-1β 0.1 ng/ml, 24 hours; 100 mM Lac, 0.1 mM Dxp
Protocol: as §1

[4] = system: type II collagen (Col2a1); assay: Col2a1 relative expression in osteoarthritic chondrocytes (qRT-PCR); assay type: cell-based, human
SOX9 = SOX9 relative expression in osteoarthritic chondrocytes (qRT-PCR, normalized to GAPDH); assay type: cell-based, human
SOX9 versus RUNX2 = assay: Relative expression of SOX9 versus RUNX2 in osteoarthritic chondrocytes; assay type: cell-based, human
[5] = low passage osteoarthritic chondrocytes, 7, 14, 28 days
[6] = passage 5 human osteoarthritic chondrocytes, 27 days
[7] = 100 millimolar Lac with 10 ng/mL TGF-B3, 14 days, micromass cultures
[8] = 100 millimolar Lac, 14 days, monolayer cultures

CC(O)C(=O)O (centres unmarked) [Lac, lactate]
inhibition of PGE2 release ([1]; 100 millimolar Lac, 0.5 ng/mL IL-1β, 48 h): complete inhibition | concentration with statistically significant effect, PGE2 release ([1]; IL-1β, 48 h): ≥ 10 millimolar | inhibition of PGE2 release ([1]; pre-incubation 24 hours, 24-hour harvest, 25 uM Dec, 28 mM Lac, 10 uM LA, singlet): −139% | inhibition of PGE2 release ([1]; rescue (added after overnight IL-1β activation), 24-hour harvest, 25 uM Dec, 28 mM Lac, 10 uM LA, singlet): 64% | inhibition of PGE2 release ([1]; rescue, 96-hour harvest, 25 uM Dec, 28 mM Lac, 10 uM LA, singlet): 27% | relative expression of ACAN (Aggrecan (ACAN)): 3.81+0.77 fold | RUNX2 expression (RUNX2; [5]): temporal decrease in RUNX2; also recorded: temporally reduced RUNX2 expression | relative expression of RUNX2 versus medium controls (RUNX2; [6]): −2.51+1.33 | relative expression of ELN (Elastin (ELN)): 0.86+3 | relative expression of MMP12 [2]: 2.2 ± 0.8 | relative expression of Col1a1 versus medium controls (type I collagen (Col1a1)): 1.63+0.20 fold | relative expression of MMP3 [3]: 1.5 ± 0.8 | increase in Col2a1 [4, 7]: 88 fold | increase in collagen ([4]; 100 millimolar Lac, 14 days, micromass pellets): 11 fold | increase in relative expression of Col2a1 [4, 8]: 1600 fold | increase in Col2a1 compared to controls ([4]; high passage osteoarthritic chondrocytes, TGF-B, 14 days, 28 mM Lac): 30 fold | relative expression of Col2a1 ([4]; low passage osteoarthritic chondrocytes, day 28): elevated Col2a1 relative expression | relative expression of Col2a1 versus medium controls [4, 6]: 49.88+4.31 fold | increase in SOX9 (SOX9; [7]): 9 fold | increase in relative expression of SOX9 (SOX9; [8]): 8 fold | increase in SOX9 transcription (SOX9; high passage osteoarthritic chondrocytes, TGF-B, 14 days, 100 mm LA, 28 mM Lac): 2 fold | SOX9 expression (SOX9; high passage, dedifferentiated osteoarthritic chondrocytes, TGF-β3, 14 days): increased SOX9 transcription; also recorded: increased expression of SOX9 | SOX9 expression (SOX9; [5]): temporal increase in SOX9 | relative expression of SOX9 versus medium controls (SOX9; passage 5 human osteoarthritic chondrocytes, 27 days, 50 micromolar Dec, 0.1 micromolar Dxp, 100 millimolar Lac): 6.34+2.46 fold | ratio of SOX9/RUNX2 (SOX9 versus RUNX2; [5]): temporally increased | expression of SOX9 compared to RUNX2 (SOX9 versus RUNX2; [6]): 25.14+12.71
